The numbers were not newly measured in patent publication US12442091B2, “Electrochemical dehydrogenation, epoxidation, substitution, and halogenation of hydrocarbons and hydrocarbon derivatives” (Wisconsin Alumni Research Foundation, priority 2020, dated 2025), which cites them from elsewhere.

≈ marks a conversion by molar mass, not a printed value.

`C=CC` [propene]: the solubility in water is 384 µg/mL (≈ 9.13 mM).

As for `CC(C)Br` [2-bromopropane], the solubility in water is 3200 µg/mL (≈ 26 mM).
